Data published in PubChem BioAssay AID248 (DTP/NCI, 2004).
Where “and” joins values, the source holds several entries; their conditions need not be identical. Equal values may be shown once. Toxic doses and inconclusive results are not listed. No stated cut-off is given here; in the data, active means T/C of 150% or more; inactive means T/C below 125%.

System: L1210 leukemia ip in BDF1 mice, survival T/C
Assay: NCI In Vivo Anticancer Drug Screen. Data for tumor model L1210 Leukemia (intraperitoneal) in B6D2F1 (BDF1) mice
Details: endpoint: mean survival time, higher = longer survival
Summary of the method: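 Survival endpoint. Drug-treated group vs vehicle group, expressed as T divided by C. Tumor passaged by transplantation.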

[1] = dose: 100.0 mg/kg/injection, schedule: Q04DX002 (ip), vehicle: saline with Tween-80
[2] = dose: 200.0 mg/kg/injection, schedule: Q04DX002 (ip), vehicle: saline with Tween-80
[3] = dose: 400.0 mg/kg/injection, schedule: Q04DX002 (ip), vehicle: saline with Tween-80
[4] = dose: 100.0 mg/kg/injection, schedule: Q04DX003 (ip), vehicle: Klucel (hydroxypropylcellulose) (HPC)
[5] = dose: 200.0 mg/kg/injection, schedule: Q04DX003 (ip), vehicle: Klucel (hydroxypropylcellulose) (HPC)
[6] = dose: 400.0 mg/kg/injection, schedule: Q04DX003 (ip), vehicle: Klucel (hydroxypropylcellulose) (HPC)
[7] = dose: 100.0 mg/kg/injection, schedule: Q01DX001 (ip), vehicle: Klucel (hydroxypropylcellulose) (HPC)
[8] = dose: 200.0 mg/kg/injection, schedule: Q01DX001 (ip), vehicle: Klucel (hydroxypropylcellulose) (HPC)
[9] = dose: 100.0 mg/kg/injection, schedule: Q01DX009 (ip), vehicle: saline
[10] = dose: 200.0 mg/kg/injection, schedule: Q01DX009 (ip), vehicle: saline
[11] = dose: 400.0 mg/kg/injection, schedule: Q01DX009 (ip), vehicle: saline
[12] = dose: 100.0 mg/kg/injection, schedule: Q01DX009 (ip), vehicle: Klucel (hydroxypropylcellulose) (HPC)
[13] = dose: 400.0 mg/kg/injection, schedule: Q01DX001 (ip), vehicle: Klucel (hydroxypropylcellulose) (HPC)
[14] = dose: 200.0 mg/kg/injection, schedule: Q01DX009 (ip), vehicle: Klucel (hydroxypropylcellulose) (HPC)
[15] = dose: 400.0 mg/kg/injection, schedule: Q01DX009 (ip), vehicle: Klucel (hydroxypropylcellulose) (HPC)
[16] = dose: 25.0 mg/kg/injection, schedule: Q01DX009 (ip), vehicle: saline with Tween-80
[17] = dose: 50.0 mg/kg/injection, schedule: Q01DX009 (ip), vehicle: saline with Tween-80
[18] = dose: 100.0 mg/kg/injection, schedule: Q01DX009 (ip), vehicle: saline with Tween-80
[19] = dose: 100.0 mg/kg/injection, schedule: Q04DX003 (ip), vehicle: saline with Tween-80
[20] = dose: 200.0 mg/kg/injection, schedule: Q04DX003 (ip), vehicle: saline with Tween-80
[21] = dose: 100.0 mg/kg/injection, schedule: Q01DX001 (ip), vehicle: saline with Tween-80
[22] = dose: 200.0 mg/kg/injection, schedule: Q01DX001 (ip), vehicle: saline with Tween-80
[23] = dose: 400.0 mg/kg/injection, schedule: Q01DX001 (ip), vehicle: saline with Tween-80

Measured: T/C

O=C(NCCCCCCCCCCNC(=O)Nc1ccc(C2=NCC(O)CN2)cc1)Nc1ccc(C2=NCC(O)CN2)cc1 (stereo not given)
inactive: dose: 4.0 mg/kg/injection, schedule: Q01DX Z (ip), vehicle: water 117 % of control | dose: 8.0 mg/kg/injection, schedule: Q01DX Z (ip), vehicle: water 112 % of control | dose: 16.0 mg/kg/injection, schedule: Q01DX Z (ip), vehicle: water 106 % of control

Cc1ccc(NC(=O)COc2c(C)cc(Cl)cc2Cl)cc1
inactive: [1] 107 % of control | [2] 96 % of control | [3] 93 % of control

COC(=O)c1ccc(=O)c2nc3/c(=C/O)c(O)cc(=O)c3[nH]c12
inactive: dose: 23.0 micrograms/kg/injection, schedule: Q01DX001 (ip), vehicle: acetone 90 % of control | dose: 23.0 micrograms/kg/injection, schedule: Q01DX009 (ip), vehicle: saline 100 % of control | dose: 23.0 micrograms/kg/injection, schedule: Q04DX003 (ip), vehicle: saline 110 % of control | dose: 47.0 micrograms/kg/injection, schedule: Q01DX001 (ip), vehicle: acetone 93 % of control | dose: 47.0 micrograms/kg/injection, schedule: Q01DX009 (ip), vehicle: saline 113 % of control | dose: 47.0 micrograms/kg/injection, schedule: Q04DX003 (ip), vehicle: saline 97 % of control | dose: 95.0 micrograms/kg/injection, schedule: Q01DX001 (ip), vehicle: acetone 92 % of control | dose: 95.0 micrograms/kg/injection, schedule: Q04DX003 (ip), vehicle: saline 101 % of control

Cc1ccc(S(=O)(=O)N(C)c2ccc(CC(=O)O)cc2)cc1
inactive: [4] 97 % of control | [5] 95 % of control | [6] 95 % of control

CCSCCC(=O)O
inactive: dose: 50.0 mg/kg/injection, schedule: Q01DX001 (ip), vehicle: Klucel (hydroxypropylcellulose) (HPC) 97 % of control | [7] 92 % of control | [8] 97 % of control

CC(=O)NC(CO)(CO)CO
inactive: dose: 100.0 mg/kg/injection, schedule: Q01DX001 (ip), vehicle: saline 94 % of control | [9] 94 % of control | dose: 200.0 mg/kg/injection, schedule: Q01DX001 (ip), vehicle: saline 102 % of control | [10] 89 % of control | dose: 400.0 mg/kg/injection, schedule: Q01DX001 (ip), vehicle: saline 98 % of control | [11] 90 % of control

CCOC(=O)c1[nH]c(C)c(CCC(=O)OC)c1C
inactive: dose: 50.0 mg/kg/injection, schedule: Q01DX009 (ip), vehicle: Klucel (hydroxypropylcellulose) (HPC) 103 % of control | [7] 95 % of control | [12] 107 % of control | [8] 93 % of control | dose: 300.0 mg/kg/injection, schedule: Q01DX009 (ip), vehicle: Klucel (hydroxypropylcellulose) (HPC) 100 % of control | [13] 95 % of control

CSc1nc2c(n1-c1ccccc1)C(=O)C(OS(=O)(=O)c1ccccc1)C(=O)N2 (stereo not given)
inactive: dose: 75.0 mg/kg/injection, schedule: Q01DX001 (ip), vehicle: saline with Tween-80 95 % of control | dose: 150.0 mg/kg/injection, schedule: Q01DX001 (ip), vehicle: saline with Tween-80 98 % of control | dose: 300.0 mg/kg/injection, schedule: Q01DX001 (ip), vehicle: saline with Tween-80 98 % of control

Cc1cc(C)nc(NC(=O)Nc2cccc(C(F)(F)F)c2)c1
inactive: [7] 102 % of control | [12] 104 % of control and 113 % of control | dose: 100.0 mg/kg/injection, schedule: Q04DX002 (ip), vehicle: Klucel (hydroxypropylcellulose) (HPC) 101 % of control and 117 % of control | [4] 94 % of control | [8] 94 % of control | [14] 93 % of control and 109 % of control | dose: 200.0 mg/kg/injection, schedule: Q04DX002 (ip), vehicle: Klucel (hydroxypropylcellulose) (HPC) 96 % of control and 98 % of control | [5] 111 % of control | [13] 98 % of control | [15] 104 % of control and 107 % of control | dose: 400.0 mg/kg/injection, schedule: Q04DX002 (ip), vehicle: Klucel (hydroxypropylcellulose) (HPC) 98 % of control and 99 % of control | [6] 99 % of control

O=C(NCCNC(c1ccccc1)C(NCCNC(=O)c1ccccc1)c1ccccc1)c1ccccc1 (stereo not given)
inactive: [16] 94 % of control | [17] 89 % of control | [18] 97 % of control and 89 % of control | dose: 400.0 mg/kg/injection, schedule: Q01DX009 (ip), vehicle: saline with Tween-80 89 % of control

Cc1cc(Cl)ccc1NC(=O)COc1ccc(Cl)cc1Cl
inactive: [17] 87 % of control | [18] 87 % of control | [19] 93 % of control | dose: 200.0 mg/kg/injection, schedule: Q01DX009 (ip), vehicle: saline with Tween-80 96 % of control | [20] 91 % of control

CC1CCN(C(=O)Nc2ccc(Cl)cc2[N+](=O)[O-])CC1
inactive: [12] 92 % of control | [14] 97 % of control | [15] 91 % of control

CC(Oc1ccccc1)C(=O)NC(=S)Nc1cccc2ccccc12 (stereo not given)
inactive: [17] 90 % of control and 91 % of control | [21] 108 % of control | [18] 100 % of control and 86 % of control | [1] 108 % of control and 114 % of control | [19] 108 % of control | [22] 95 % of control | [2] 93 % of control and 105 % of control | [20] 92 % of control | [23] 93 % of control | [3] 93 % of control and 88 % of control | dose: 400.0 mg/kg/injection, schedule: Q04DX003 (ip), vehicle: saline with Tween-80 92 % of control

O=C(CCCc1ccc(N(CCCl)CCCl)cc1)Nc1ncccn1
inactive: dose: 1.0 mg/kg/injection, schedule: Q01DX015 (ip), vehicle: carboxymethylcellulose (CMC) 113 % of control | dose: 3.0 mg/kg/injection, schedule: Q01DX015 (ip), vehicle: carboxymethylcellulose (CMC) 118 % of control | dose: 6.0 mg/kg/injection, schedule: Q01DX015 (ip), vehicle: carboxymethylcellulose (CMC) 118 % of control | dose: 6.25 mg/kg/injection, schedule: Q01DX001 (ip), vehicle: saline 110 % of control | dose: 12.0 mg/kg/injection, schedule: Q01DX015 (ip), vehicle: carboxymethylcellulose (CMC) 123 % of control | dose: 12.5 mg/kg/injection, schedule: Q01DX001 (ip), vehicle: saline 110 % of control | dose: 25.0 mg/kg/injection, schedule: Q01DX001 (ip), vehicle: saline 121 % of control

O=C(O)c1ccc(N=Nc2ncc[nH]2)cc1
inactive: dose: 6.25 mg/kg/injection, schedule: Q01DX009 (ip), vehicle: saline with Tween-80 92 % of control | dose: 12.5 mg/kg/injection, schedule: Q01DX009 (ip), vehicle: saline with Tween-80 96 % of control | [16] 96 % of control | [17] 87 % of control

CC(=O)NCCCCCC(=O)O
inactive: dose: 25.0 mg/kg/injection, schedule: Q01DX009 (ip), vehicle: saline 97 % of control | dose: 50.0 mg/kg/injection, schedule: Q01DX009 (ip), vehicle: saline 105 % of control | dose: 50.0 mg/kg/injection, schedule: Q04DX003 (ip), vehicle: saline 102 % of control | [12] 98 % of control and 90 % of control | [9] 108 % of control | [4] 101 % of control and 88 % of control | dose: 100.0 mg/kg/injection, schedule: Q04DX003 (ip), vehicle: saline 103 % of control | [14] 97 % of control and 101 % of control | [10] 100 % of control | [5] 101 % of control and 90 % of control | dose: 200.0 mg/kg/injection, schedule: Q04DX003 (ip), vehicle: saline 104 % of control | [15] 101 % of control | [11] 100 % of control | [6] 95 % of control and 101 % of control | dose: 400.0 mg/kg/injection, schedule: Q04DX003 (ip), vehicle: saline 96 % of control | dose: 800.0 mg/kg/injection, schedule: Q04DX003 (ip), vehicle: saline 95 % of control

Nc1cccc(OCCc2ccccc2)c1
inactive: [21] 96 % of control | [22] 94 % of control | [23] 96 % of control
